Data as given in US20240018123A1, “COMPOUND FOR INHIBITING OR DISINTEGRATING ANDROGEN RECEPTOR, AND PHARMACEUTICAL USE THEREOF” (KOREA RESEARCH INSTITUTE OF CHEMICAL TECHNOLOGY, priority 2020, published 2024).
Where two headings read alike, the source gives them in different places.

Experiments:
Androgen receptor (AR) = biological target: T1, Androgen receptor (AR) (Homo sapiens, UniProt P10275, T878A); test: Assessment of AR proteolytic activity (Western blotting of LNCap cell lysates); format: cell-based; conditions: 24 hours of treatment, Western blotting quantified with Image J
T1 construct: 5.5×10^5 LNCap cells were injected into each well of a 6-well plate; endogenous in cells; host or cells: LNCaP
T1 sequence (P10275 1-920 T878A): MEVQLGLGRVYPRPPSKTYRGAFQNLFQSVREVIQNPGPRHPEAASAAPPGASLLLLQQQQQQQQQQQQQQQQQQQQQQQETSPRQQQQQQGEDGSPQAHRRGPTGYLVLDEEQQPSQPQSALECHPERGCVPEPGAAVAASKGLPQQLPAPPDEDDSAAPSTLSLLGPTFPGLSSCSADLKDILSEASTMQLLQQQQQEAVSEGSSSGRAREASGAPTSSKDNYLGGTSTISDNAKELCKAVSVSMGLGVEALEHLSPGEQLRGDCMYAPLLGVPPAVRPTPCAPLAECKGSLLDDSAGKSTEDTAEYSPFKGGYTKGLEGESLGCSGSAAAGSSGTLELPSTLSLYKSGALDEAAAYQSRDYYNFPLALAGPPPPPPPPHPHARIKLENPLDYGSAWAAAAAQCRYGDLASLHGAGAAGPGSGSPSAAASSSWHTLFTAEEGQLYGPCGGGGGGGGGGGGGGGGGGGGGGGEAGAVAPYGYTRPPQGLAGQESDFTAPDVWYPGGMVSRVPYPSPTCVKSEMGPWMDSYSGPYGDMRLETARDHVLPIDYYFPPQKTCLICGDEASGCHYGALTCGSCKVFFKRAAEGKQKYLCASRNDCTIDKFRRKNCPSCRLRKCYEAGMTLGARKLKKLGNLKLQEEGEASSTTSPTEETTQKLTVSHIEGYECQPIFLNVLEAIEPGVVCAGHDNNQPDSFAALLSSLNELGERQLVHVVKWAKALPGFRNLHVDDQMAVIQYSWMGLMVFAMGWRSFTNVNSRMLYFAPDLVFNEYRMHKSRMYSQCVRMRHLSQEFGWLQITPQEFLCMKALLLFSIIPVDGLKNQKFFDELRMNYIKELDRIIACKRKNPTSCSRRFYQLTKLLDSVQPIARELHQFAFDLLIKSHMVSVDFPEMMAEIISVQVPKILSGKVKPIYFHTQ
Method in brief: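 AR degradation read by Western blot densitometry on RIPA lysates (pH 7.5, protease inhibitor cocktail). Lysates came from LNCap cells, 5.5×10^5 per well, exposed to compound for 24 hours.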

LNCaP cells [1] = system: LNCaP cells
Description: (§1) In order to evaluate the androgen receptor (AR) cytotoxicity of the compounds according to the present invention, the following experiment was conducted. Specifically, 1.5×10^3 (LNCaP) or 4×10^3 (VCaP, 22RV1), respectively, of LNCaP, VCaP, and 22RV1 cells were injected into each well of a 96-well plate. The next day, each well was treated with the compound at a final concentration of 3 nM, 10 nM, 30 nM, 100 nM, 300 nM, 1 μM, 3 μM, and 10 μM. […] After 6 days of treatment, Cell-titer-glo (promega) was treated and reacted for 10 minutes, and cell viability was measured with a multimode plate reader (PerkinElmer, Inc.), and the change was quantified compared to when DMSO was treated.

VCaP cells [2] = system: VCaP cells
Description: as §1

VCaP cells [3] = test: Cytotoxicity assessment (Cell-titer-glo cell viability), VCaP; conditions: read-out: VCaP (CC50); VCaP cells, 6 days of treatment, Cell-titer-glo, vs DMSO
Description: as §1

LNCaP cells [4] = test: Cytotoxicity assessment (Cell-titer-glo cell viability), LNCaP; conditions: read-out: LNCAP (CC50); LNCaP cells, 6 days of treatment, Cell-titer-glo, vs DMSO
Description: as §1

| SMILES | Degradation (1 μM treated in LNCaP, % AR remaining) (Androgen receptor (AR)) | CC50 (LNCaP cells [1]) | CC50 (VCaP cells [2]) | CC50 (VCaP cells [3]) | CC50 (LNCaP cells [4]) |
| --- | --- | --- | --- | --- | --- |
| CC1(C)C(NC(=O)c2ccc(OCCOCCOCCOCCOCCOCCCCNc3cccc4nnn(C5CCC(=O)NC5=O)c(=O)c34)cc2)C(C)(C)C1Oc1ccc(C#N)c(Cl)c1 (centres unmarked) [Example 5, N-((1r,3r)-3-(3-chloro-4-cyanophenoxy)-2,2,4,4-tetramethylcyclobutyl)-4-((19-((3-(2,6-dioxopiperidin-3-yl)-4-oxo-3,4-dihydrobenzo[d][1,2,3]triazin-5-yl)amino)-3,6,9,12,15-pentaoxanonadecyl)oxy)benzamide] | 6% | 1600 nM |  |  |  |
| CC1(C)[C@H](NC(=O)c2ccc(C#CC3CCN(C(=O)CNc4ccc5nnn(C6CCC(=O)NC6=O)c(=O)c5c4)CC3)cc2)C(C)(C)[C@H]1Oc1ccc(C#N)c(Cl)c1 (some centres unmarked) [Example 143, N-((1r,3r)-3-(3-chloro-4-cyanophenoxy)-2,2,4,4-tetramethylcyclobutyl)-4-((1-((3-(2,6-dioxopiperidin-3-yl)-4-oxo-3,4-dihydrobenzo[d][1,2,3]triazin-6-yl)glycyl)piperidin-4-yl)ethynyl)benzamide] | 18% | 17.6 nM | 6.9 nM |  |  |
| CC1(C)[C@H](NC(=O)c2ccc(N3CCN(CC4CCN(C(=O)C5CN(c6ccc7nnn(C8CCC(=O)NC8=O)c(=O)c7c6)C5)CC4)CC3)cc2)C(C)(C)[C@H]1Oc1ccc(C#N)c(Cl)c1 (some centres unmarked) [Example 11, N-((1r,3r)-3-(3-chloro-4-cyanophenoxy)-2,2,4,4-tetramethylcyclobutyl)-4-(4-((1-(1-(3-(2,6-dioxopiperidin-3-yl)-4-oxo-3,4-dihydrobenzo[d][1,2,3]triazin-6-yl)azetidine-3-carbonyl)piperidin-4-yl)methyl)piperazin-1-yl)benzamide] | 7% | 91.4 nM | 74.7 nM |  |  |
| CC1(C)[C@H](NC(=O)c2ccc(N3CCN(CC4CCN(c5ccc6c(=O)n(C7CCC(=O)NC7=O)nnc6c5)CC4)CC3)cc2)C(C)(C)[C@H]1Oc1ccc(C#N)c(Cl)c1 (some centres unmarked) [Example 12, N-((1r,3r)-3-(3-chloro-4-cyanophenoxy)-2,2,4,4-tetramethylcyclobutyl)-4-(4-((1-(3-(2,6-dioxopiperidin-3-yl)-4-oxo-3,4-dihydrobenzo[d][1,2,3]triazin-7-yl)piperidin-4-yl)methyl)piperazin-1-yl)benzamide] | 7% | 1310 nM |  |  |  |
| CC1(C)[C@H](NC(=O)c2ccc(-n3cc(C4CCN(C(=O)C5CN(c6ccc7nnn(C8CCC(=O)NC8=O)c(=O)c7c6)C5)CC4)nn3)cc2)C(C)(C)[C@H]1Oc1ccc(C#N)c(Cl)c1 (some centres unmarked) [Example 101, N-((1r,3r)-3-(3-chloro-4-cyanophenoxy)-2,2,4,4-tetramethylcyclobutyl)-4-(4-(1-(1-(3-(2,6-dioxopiperidin-3-yl)-4-oxo-3,4-dihydrobenzo[d][1,2,3]triazin-6-yl)azetidine-3-carbonyl)piperidin-4-yl)-1H-1,2,3-triazol-1-yl)benzamide] | 40% | 7.06 nM | 15.5 nM |  |  |
| CC1(C)[C@H](NC(=O)c2ccc(N3CCN(CCCC4CCN(C(=O)C5CN(c6ccc7nnn(C8CCC(=O)NC8=O)c(=O)c7c6)C5)CC4)CC3)cc2)C(C)(C)[C@H]1Oc1ccc(C#N)c(Cl)c1 (some centres unmarked) [Example 47, N-((1r,3r)-3-(3-chloro-4-cyanophenoxy)-2,2,4,4-tetramethylcyclobutyl)-4-(4-(3-(1-(1-(3-(2,6-dioxopiperidin-3-yl)-4-oxo-3,4-dihydrobenzo[d][1,2,3]triazin-6-yl)azetidine-3-carbonyl)piperidin-4-yl)propyl)piperazin-1-yl)benzamide] | 43.6% | 168 nM | 23.7 nM |  |  |
| CC1(C)C(NC(=O)c2ccc(OCCOCCOCCOCCOCCOCCCCNC(=O)CNc3cccc4nnn(C5CCC(=O)NC5=O)c(=O)c34)cc2)C(C)(C)C1Oc1ccc(C#N)c(Cl)c1 (centres unmarked) [Example 14, N-((1r,3r)-3-(3-chloro-4-cyanophenoxy)-2,2,4,4-tetramethylcyclobutyl)-4-((22-((3-(2,6-dioxopiperidin-3-yl)-4-oxo-3,4-dihydrobenzo[d][1,2,3]triazin-5-yl)amino)-21-oxo-3,6,9,12,15-pentaoxa-20-azadocosyl)oxy)benzamide] | 35.3% | 4020 nM |  |  |  |
| CC1(C)[C@H](NC(=O)c2ccc(N3CCN(CC4CCN(C(=O)CNc5ccc6nnn(C7CCC(=O)NC7=O)c(=O)c6c5)CC4)CC3)cc2)C(C)(C)[C@H]1Oc1ccc(C#N)c(Cl)c1 (some centres unmarked) [Example 9, N-((1r,3r)-3-(3-chloro-4-cyanophenoxy)-2,2,4,4-tetramethylcyclobutyl)-4-(4-((1-((3-(2,6-dioxopiperidin-3-yl)-4-oxo-3,4-dihydrobenzo[d][1,2,3]triazin-6-yl)glycyl)piperidin-4-yl)methyl)piperazin-1-yl)benzamide] | 39.9% | 117 nM |  |  |  |
| CC1(C)[C@H](NC(=O)c2ccc(N3CCN(CC4CCN(c5cccc6nnn(C7CCC(=O)NC7=O)c(=O)c56)CC4)CC3)cc2)C(C)(C)[C@H]1Oc1ccc(C#N)c(Cl)c1 (some centres unmarked) [Example 7, N-((1r,3r)-3-(3-chloro-4-cyanophenoxy)-2,2,4,4-tetramethylcyclobutyl)-4-(4-((1-(3-(2,6-dioxopiperidin-3-yl)-4-oxo-3,4-dihydrobenzo[d][1,2,3]triazin-5-yl)piperidin-4-yl)methyl)piperazin-1-yl)benzamide] | 24.3% | 902 nM |  |  |  |
| CC1(C)[C@H](NC(=O)c2ccc(N3CCN(C4CC5(CCN(C(=O)CNc6ccc7nnn(C8CCC(=O)NC8=O)c(=O)c7c6)CC5)C4)CC3)cc2)C(C)(C)[C@H]1Oc1ccc(C#N)c(Cl)c1 (some centres unmarked) [Example 19, N-((1r,3r)-3-(3-chloro-4-cyanophenoxy)-2,2,4,4-tetramethylcyclobutyl)-4-(4-(7-((3-(2,6-dioxopiperidin-3-yl)-4-oxo-3,4-dihydrobenzo[d][1,2,3]triazin-6-yl)glycyl)-7-azaspiro[3.5]nonan-2-yl)piperazin-1-yl)benzamide] | 23% |  |  | 76.3 nM | 208 nM |
| CC1(C)C(NC(=O)c2ccc(OCCOCCOCCOCCOCCNc3cccc4nnn(C5CCC(=O)NC5=O)c(=O)c34)cc2)C(C)(C)C1Oc1ccc(C#N)c(Cl)c1 (centres unmarked) [Example 2, N-((1r,3r)-3-(3-chloro-4-cyanophenoxy)-2,2,4,4-tetramethylcyclobutyl)-4-((14-((3-(2,6-dioxopiperidin-3-yl)-4-oxo-3,4-dihydrobenzo[d][1,2,3]triazin-5-yl)amino)-3,6,9,12-tetraoxatetradecyl)oxy)benzamide] | 100% | 4930 nM |  |  |  |
| CC1(C)C(NC(=O)c2ccc(OCCOCCOCCOCCOCCOCCCCNc3ccc4nnn(C5CCC(=O)NC5=O)c(=O)c4c3)cc2)C(C)(C)C1Oc1ccc(C#N)c(Cl)c1 (centres unmarked) [Example 17, N-((1r,3r)-3-(3-chloro-4-cyanophenoxy)-2,2,4,4-tetramethylcyclobutyl)-4-((19-((3-(2,6-dioxopiperidin-3-yl)-4-oxo-3,4-dihydrobenzo[d][1,2,3]triazin-6-yl)amino)-3,6,9,12,15-pentaoxanonadecyl)oxy)benzamide] | 6.7% | 835 nM |  |  |  |
